Source: patent US8835643B2, “Molecules, compositions, and methods for light absorption” (Empire Technology Development LLC, priority 2012, dated 2014)

Key:
[1] = Photoisomerization tests under UV, visible and natural light; assay type: physicochemical; settings: for time of UV light irradiation to convert trans into cis form / time of visible light irradiation to reach the photostationary state of trans form: 400 W Hg lamp; for time of UV light irradiation to convert trans into cis form: 275-400 nm filter, room temperature; for time of visible light irradiation to reach the photostationary state of trans form: filter >400 nm; for time of natural light irradiation to reach the photostationary state of trans form: fluorescent lamps, about 500 lx
Description: Photoisomerization tests were carried out on compounds PyB (Formula XIV) and iQB (Formula XV), which were synthesized and characterized by MS, IR, ^1H NMR spectra.
The tests included observing the UVA-absorbing condition before and after light exposure and noting the molar absorption coefficient. The test also included determining the photo isomerization conditions under illumination of UVA, visible light and daylight. The compounds were irradiated with a 400 W high-pressure Hg lamp (LCE-9, Zhengzhou, China). A bandpass filter (λT=275˜400 nm) was used for UV light and a bandpass filter (λT>400 nm) was used for visible light. The light distance was 20 cm. For natural light irradiation, samples were irradiated with fluorescent lamps (21 W×2, luminous intensity about 500 lx), and the light distance was 120 cm. The ultraviolet spectra of CHCl3 were measured using an UV-Vis spectrophotometer (U3010, Hitachi, Japan). All experiments were carried out at room temperature unless otherwise stated.
It was estimated from the spectral change that trans-PyB and iQB were converted into the cis-PyB or iQB after 6 or 8 min (respectively) of UV light irradiation (FIGS. 3A and 4A); it took 8 min of visible light irradiation to reach the photostationary state of trans-PyB or iQB (FIGS. 3B and 4B) and 3.0 h of natural light irradiation to reach the photostationary state of trans-PyB or iQB (FIGS. 3C and 4C).

[2] = Molar absorptivity in CHCl3 (UV-Vis spectrophotometer); assay type: physicochemical; settings: for κ (molar absorptivity): CHCl3; for λmax (λCHCl3): in CHCl3
Description: The tests included observing the UVA-absorbing condition before and after light exposure and noting the molar absorption coefficient. […] The ultraviolet spectra of CHCl3 were measured using an UV-Vis spectrophotometer (U3010, Hitachi, Japan). All experiments were carried out at room temperature unless otherwise stated.

[3] = Critical wavelength method, evaluation as UVA protector; assay type: physicochemical
Source text: The term “critical wavelength method” denotes a method of measuring of the breadth of UVA protection using the “critical wavelength”. To obtain this value, the absorbance of the molecule or material is integrated (summed) from 290 nm across the UV wavelengths until the sum reaches 90% of the total absorbance of the sunscreen in the UV region of 290-400 nm. The wavelength where the summed absorbance reaches 90% of the total absorbance is the “critical wavelength”. The critical wavelength can be defined by the following equation: […]
The critical wavelength method was then employed for evaluation of the molecule CDBA as a UVA protector. The results are shown in FIGS. 5A-5C, which are graphs depicting the data using the Critical Wavelength method to evaluate CDBA as a UVA protector. […] Its 90% value was 124.030. […] Given this, the λc was determined to be between 389-390 nm. Furthermore, the results can be summarized as follows: • After 6 minutes of irradiation of UVA radiation (356 nm or 357 nm), 100% of the composition was isomeric. • After 8 minutes of irradiation of visible light radiation (442 nm or 443 nm), 99% of the molecules were isomeric. • After 3 hours of daylight irradiation, more than 90% of the molecules were isomeric, trans.

Description for back of the rats: Phototoxicity of various azo-compounds was examined.
The UV source for the in vivo testing involved a 400 W high-pressure mercury lamp (LCE-9, Zhengzhou, China) with a filter transmitting the wavelength between 320-380 nm. Four test sites (4 cm^2) were selected on the back of the rats. The sites were located between the breast and scapulae and lateral to the midline. The test product was applied at the amount of 20 ul/cm^2 (0.06 mg CDBA) and spread uniformly over one test site using a finger cot. The product was allowed to dry for 15 min before starting the UV exposure. On each test site, four squares (1 cm×1 cm) were defined, on an unprotected skin area of the rat dorsal and on a sunscreen-protected area. The skin was kept at a distance of 15 cm from the light source and the time of illumination was 5 hours on the test sites.

SMILES	time of UV light irradiation to convert trans into cis form [1] [min]	time of visible light irradiation to reach the photostationary state of trans form [1] [min]	time of natural light irradiation to reach the photostationary state of trans form [1] [h]	κ (molar absorptivity) ([2]; at λmax) [L/mol/cm]	A (absorbance) ([2]; at λmax, CHCl3, C 0.01 mg/mL)	λmax (λCHCl3) [2]	κ (molar absorptivity) ([2]; at 442 nm) [L/mol/cm]	also measured
CC(C)CCCC(C)C1CCC2C3CC=C4CC(OC(=O)c5ccc(N=Nc6ccc(OCCCC[n+]7ccc8ccccc8c7)cc6)cc5)CCC4(C)C3CCC12C.[Br-] (centres unmarked) [iQB]	8	8	3.0	21176	0.242	357 (λmax) nm		
CCN(CC)CCCCOc1ccc(N=Nc2ccc(C(=O)OC3CCC4(C)C(=CCC5C4CCC4(C)C(C(C)CCCC(C)C)CCC54)C3)cc2)cc1 (centres unmarked) [CDBA, 4-cholesterocarbonyl-4′-(N,N-diethylaminebutyloxyl)azobenzene]				24726	0.335	357 (λmax) nm	3174	integrated area ([3]; 290-389 (FIG. 5C)): 123.707; integrated area ([3]; 290-390 (FIG. 5B)): 125.025; 90% value of integrated area ([3]; 290 nm to 400 nm (FIG. 5A)): 124.030; integrated area ([3]; 290 nm to 400 nm (FIG. 5A)): 137.811; critical wavelength λc ([3]; wavelength where summed absorbance from 290 nm reaches 90% of the 290-400 nm total): 389-390 nm; A (absorbance) ([2]; at 442 nm, CHCl3, C 0.01 mg/mL): 0.043; protection of skin from UV irradiation (back of the rats; rat back, in liposome, 20 ul/cm2 (0.06 mg CDBA), 320-380 nm for 5 h, seen three days after): effectively protected skin from UV irradiation; adverse effect on skin (back of the rats; rat, in vivo): no adverse effect including allergy
CC(C)CCCC(C)C1CCC2C3CC=C4CC(OC(=O)c5ccc(N=Nc6ccc(OCCCC[n+]7ccccc7)cc6)cc5)CCC4(C)C3CCC12C.[Br-] (centres unmarked) [PyB]	6	8	3.0	14464		356 (λmax) nm	2227	A (absorbance) ([2]; at 442 nm, CHCl3, C 0.03 mg/mL): 0.081; A (absorbance) ([2]; at λmax, CHCl3, C 0.03 mg/mL): 0.526
COc1ccc(C(=O)CC(=O)c2ccc(C(C)(C)C)cc2)cc1 [avobenzone, reference compound]				23870	0.770	358 (λmax) nm		κ (molar absorptivity) ([2]; at 320 nm): 10354 L/mol/cm; A (absorbance) ([2]; at 320 nm, CHCl3, C 0.01 mg/mL): 0.334; κ (molar absorptivity) ([2]; at 360 nm): 23715 L/mol/cm; A (absorbance) ([2]; at 360 nm, CHCl3, C 0.01 mg/mL): 0.765; κ (molar absorptivity) ([2]; at 400 nm): 2294 L/mol/cm; A (absorbance) ([2]; at 400 nm, CHCl3, C 0.01 mg/mL): 0.074
